# Biological target: T1, angiotensin converting enzyme (Cavia porcellus, UniProt H0UWL7)
# T1 construct: from tissue; host or cells: guinea pig ileum
# T1 sequence (H0UWL7 33-1302): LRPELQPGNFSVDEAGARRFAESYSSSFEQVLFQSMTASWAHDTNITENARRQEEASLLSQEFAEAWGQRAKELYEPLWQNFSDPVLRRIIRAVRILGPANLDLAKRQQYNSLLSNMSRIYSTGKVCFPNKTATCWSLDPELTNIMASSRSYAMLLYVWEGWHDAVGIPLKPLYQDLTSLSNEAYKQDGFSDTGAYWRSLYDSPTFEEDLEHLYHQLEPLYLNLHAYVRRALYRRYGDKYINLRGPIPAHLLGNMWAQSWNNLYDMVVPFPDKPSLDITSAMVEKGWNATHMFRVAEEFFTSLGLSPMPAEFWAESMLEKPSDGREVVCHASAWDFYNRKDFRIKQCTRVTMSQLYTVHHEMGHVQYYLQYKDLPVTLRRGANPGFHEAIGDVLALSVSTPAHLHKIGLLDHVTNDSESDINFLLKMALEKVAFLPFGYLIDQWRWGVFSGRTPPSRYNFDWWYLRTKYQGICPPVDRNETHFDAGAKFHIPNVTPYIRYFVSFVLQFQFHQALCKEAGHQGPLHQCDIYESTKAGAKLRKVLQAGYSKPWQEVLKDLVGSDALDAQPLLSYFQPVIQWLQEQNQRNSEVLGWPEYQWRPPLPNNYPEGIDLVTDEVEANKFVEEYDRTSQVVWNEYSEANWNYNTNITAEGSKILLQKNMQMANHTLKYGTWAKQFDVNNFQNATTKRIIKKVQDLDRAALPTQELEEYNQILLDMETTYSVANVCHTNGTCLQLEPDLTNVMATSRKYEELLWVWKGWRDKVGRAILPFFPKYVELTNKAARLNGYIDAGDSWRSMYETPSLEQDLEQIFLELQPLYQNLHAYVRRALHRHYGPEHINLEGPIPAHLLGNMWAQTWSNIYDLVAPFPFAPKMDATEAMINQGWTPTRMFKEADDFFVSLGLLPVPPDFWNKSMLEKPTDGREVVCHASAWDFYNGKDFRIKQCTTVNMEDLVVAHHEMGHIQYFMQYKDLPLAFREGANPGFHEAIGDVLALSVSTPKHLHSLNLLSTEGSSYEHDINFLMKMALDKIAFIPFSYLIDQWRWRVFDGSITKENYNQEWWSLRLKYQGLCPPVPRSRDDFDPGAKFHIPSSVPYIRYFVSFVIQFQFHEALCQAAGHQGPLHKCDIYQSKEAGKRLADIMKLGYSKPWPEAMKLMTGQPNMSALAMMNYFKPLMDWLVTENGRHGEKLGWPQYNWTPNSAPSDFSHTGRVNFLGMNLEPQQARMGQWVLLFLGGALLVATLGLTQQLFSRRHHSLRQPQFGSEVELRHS
# Test: angiotensin converting enzyme inhibition in guinea pig ileum (inhibition of contractile responses to Angiotensin I)
# Details: dose-dependent inhibition of contractile responses to Angiotensin I, read-out: EC50 (the source's name)
# Source text: (b) ACE inhibition in vitro
# In an assay for angiotensin converting enzyme inhibition in guinea pig ileum, dose-dependent inhibition of contractile responses to Angiotensin I gave the following results: […]
row,SMILES,IC50 [nM]
1,"CC(C)NC[C@H](O)COc1cccc2[nH]c(C(=O)NCCCC[C@H](N[C@@H](C)C(=O)N3CCC[C@H]3C(=O)O)C(=O)O)cc12 [Example 1, N-(1(S)-Carboxy-5-[4-(2(S)-hydroxy-3-isopropylaminopropoxy)-1H-indol-2-ylcarboxamido]pentyl)-(S)-alanyl-(S)-proline]",1.4
2,"CC(C)NCC(O)COc1cccc2cc(C(=O)NCCCC[C@H](NC(C)C(=O)N3CCC[C@H]3C(=O)O)C(=O)O)ccc12 (stereo partly drawn) [Example 2, N-(1(S)-Carboxy-5-[5-(2,(R,S)-hydroxy-3-isopropylaminopropoxy)naphth-2-ylcarboxamido]pentyl)-(R,S)-alanyl-(S)-proline bistrifluoroacetate]",13.5
3,"CC(C)NCC(O)COc1cccc2ccc(C(=O)NCCCC[C@H](NC(C)C(=O)N3CCC[C@H]3C(=O)O)C(=O)O)cc12 (stereo partly drawn) [Example 3, N-(1(S)-Carboxy-5-[8-(2(R,S)-hydroxy-3-isopropylaminopropoxy)naphth-2--ylcarboxamido]pentyl)-(R,S)-alanyl-(S)-proline bistrifluoroacetate]",10.3

# — patent EP0234946A2, “New compounds” (THE WELLCOME FOUNDATION LIMITED, priority 1986, dated 1987)
